The values below come from ChEMBL document CHEMBL1142219, “Discovery of platencin, a dual FabF and FabH inhibitor with in vivo antibiotic properties” (Proc Natl Acad Sci U S A, 2007).

≈ marks a conversion by molar mass, not a printed value. Calls of active or inactive are those of the source. The rule behind the calls is not given here.

The subject of data set [1] is Staphylococcus aureus. Put plainly: Inhibition of Staphylococcus aureus FabF assessed as reduced accumulation of long chain beta-ketoacyl-ACP at 2 ug/ml by FabF/FabH PAGE elongation assay.
The subject of data set [2] is Staphylococcus aureus. Put plainly: Inhibition of Staphylococcus aureus FabF assessed as reduced accumulation of long chain beta-ketoacyl-ACP at 20 ug/ml by FabF/FabH PAGE elongation assay.
Data set [3] is described as follows: Inhibition of Staphylococcus aureus FabH assessed as reduced accumulation of acetoacetyl-ACP by FabF/FabH PAGE elongation assay.
Data set [4] relates to Escherichia coli. The experiment in a line: Antibacterial activity against wild type Escherichia coli. It counts as functional.
Data set [5] deals with Staphylococcus aureus. The experiment in a line: Antibacterial activity against methicillin and linezolid-resistant Staphylococcus aureus. It counts as functional.
Data set [6] can be described thus: Toxicity in human RBC assessed as drug level causing hemolysis. Conditions: erythrocyte. It counts as cell-based.
Another data set has as its system HeLa. The experiment in a line: Cytotoxicity against human HeLa cells by MTT assay. It counts as functional, cell-based.
Another data set deals with Candida albicans. The experiment in a line: Antifungal activity against Candida albicans. Format: functional.
In data set [7] the test system is Escherichia coli. The experiment in a line: Antibacterial activity against efflux negative-tolC mutant containing Escherichia coli. It counts as functional.
In another data set the test system is Enterococcus faecium. The experiment in a line: Antibacterial activity against vancomycin-resistant Enterococcus faecium. It counts as functional.
The subject of data set [8] is Staphylococcus aureus. Put plainly: Antibacterial activity against methicillin-sensitive Staphylococcus aureus infected mouse kidney assessed as log reduction of bacterial count at 150 ug/hr after 24 hrs. It counts as functional.
The subject of data set [9] is Staphylococcus aureus. The experiment in a line: Antibacterial activity against Staphylococcus aureus expressing antisense fabF assessed as drug level causing >5 mm zone of inhibition after 18 hrs by agar diffusion two plate differential sensitivity antisense assay. Format: functional.
Data set [10] has as its system Staphylococcus aureus. The experiment in a line: Antibacterial activity against methicillin-resistant Staphylococcus aureus. It counts as functional.
Data set [11] has as its system Streptococcus pneumoniae. The experiment in a line: Inhibition of fatty acid synthesis in Streptococcus pneumoniae in whole cell activity assay. It counts as functional, organism-based.
The test system of data set [12] is Streptococcus pneumoniae. Put plainly: Antibacterial activity against Streptococcus pneumoniae. It counts as functional.
Data set [13] relates to Staphylococcus aureus. The experiment in a line: Antibacterial activity against methicillin and macrolide-resistant Staphylococcus aureus. It counts as functional.
The species named for the next data set is Mus musculus. The experiment in a line: Toxicity in methicillin-sensitive Staphylococcus aureus infected mouse model at 150 ug/hr after 24 hrs. It counts as organism-based. As to conditions: in vivo.
The test system of the next data set is Enterococcus faecalis. Put plainly: Antibacterial activity against macrolide-resistant Enterococcus faecalis. Format: functional.
A short description of data set [14]: Inhibition of Staphylococcus aureus FabH by direct binding assay.
Data set [15] has as its target T1, Malonyl CoA-acyl carrier protein transacylase (Staphylococcus aureus) (UniProt Q93QD4).
T1 sequence (whole entry): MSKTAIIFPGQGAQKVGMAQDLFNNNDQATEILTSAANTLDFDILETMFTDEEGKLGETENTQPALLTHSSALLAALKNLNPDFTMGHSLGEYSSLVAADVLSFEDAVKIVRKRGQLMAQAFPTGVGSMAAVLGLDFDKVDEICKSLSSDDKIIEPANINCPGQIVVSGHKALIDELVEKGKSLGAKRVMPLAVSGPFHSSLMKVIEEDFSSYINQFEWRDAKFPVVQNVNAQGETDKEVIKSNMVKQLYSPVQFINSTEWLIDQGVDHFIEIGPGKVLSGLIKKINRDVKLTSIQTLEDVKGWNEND
The experiment in a line: Inhibition of Staphylococcus aureus FabD assessed as reduced malonyl-ACP levels.

Data set [16] has as its system Staphylococcus aureus. The experiment in a line: Antibacterial activity against methicillin-sensitive Staphylococcus aureus. Format: functional.
For data set [17], the system named is Staphylococcus aureus. The experiment in a line: Antibacterial activity against vancomycin-intermediate resistant Staphylococcus aureus. Format: functional.
The test system of data set [18] is Staphylococcus aureus. Put plainly: Inhibition of fatty acid synthesis in Staphylococcus aureus in whole cell activity assay. It counts as functional, organism-based.
In data set [19] the test system is Staphylococcus aureus. Put plainly: Antibacterial activity against Staphylococcus aureus in presence of serum. Format: functional.
Data set [20] is described as follows: Inhibition of Staphylococcus aureus FabH assessed as reduced accumulation of long chain beta-ketoacyl-ACP by FabF/FabH PAGE elongation assay.
The nature of data set [21]: Inhibition of Staphylococcus aureus FabF assessed as reduced accumulation of acetoacetyl-ACP by FabF/FabH PAGE elongation assay.
Data set [22] can be described thus: Inhibition of Staphylococcus aureus FabF by direct binding assay.
The subject of data set [23] is Staphylococcus aureus. Put plainly: Inhibition of RNA biosynthesis in Staphylococcus aureus upto 50 ug/ml in whole cell activity assay. Format: functional, organism-based.
A short description of data set [24]: Inhibition of Staphylococcus aureus FabF assessed as reduced accumulation of long chain beta-ketoacyl-ACP by FabF/FabH PAGE elongation assay.
Data set [25] relates to Staphylococcus aureus. The experiment in a line: Inhibition of DNA biosynthesis in Staphylococcus aureus upto 50 ug/ml in whole cell activity assay. It counts as functional, organism-based.
Data set [26] concerns Staphylococcus aureus. Put plainly: Inhibition of cell wall biosynthesis in Staphylococcus aureus upto 50 ug/ml in whole cell activity assay. Format: functional, organism-based.
Data set [27] relates to Staphylococcus aureus. The experiment in a line: Inhibition of protein biosynthesis in Staphylococcus aureus upto 50 ug/ml in whole cell activity assay. It counts as functional, organism-based.

For `O=C(O)c1cc2cc(OCc3c(Cl)cccc3Cl)ccc2n1Cc1cc2c(cc1Cl)OCO2`, the figures for the inhibition in the data set with Staphylococcus aureus [1] and in the data set on Staphylococcus aureus [2] were 50% and 90%, respectively. Further, the IC50 in data set [3] was determined as 3.96 µM.

For the molecule `CC(=O)NC[C@H]1CN(c2ccc(N3CCOCC3)c(F)c2)C(=O)O1` [LINEZOLID], the MIC against Escherichia coli [4] was more than 64 µg/mL; with Staphylococcus aureus [5], 32 µg/mL (≈ 94.9 µM); against Candida albicans, more than 64 µg/mL; against Escherichia coli [7], 32 µg/mL (≈ 94.9 µM); against Enterococcus faecium, 2 µg/mL (≈ 5.93 µM). Moreover, the Activity in data set [6] was more than 67 µg/mL. This molecule also returned an IC50 in the data set with HeLa of more than 100 µg/mL.

For `O=C(N[C@H](CO)[C@H](O)c1ccc([N+](=O)[O-])cc1)C(Cl)Cl` [CHLORAMPHENICOL], in [6], the Activity was more than 64 µg/mL.

For the molecule `C=C1C[C@@]23C=CC(=O)[C@@](C)(CCC(=O)Nc4c(O)ccc(C(=O)O)c4O)[C@@H]2C[C@@H]1CC3` [PLATENCIN], the Activity in the data set on Staphylococcus aureus [8] was 3; with Staphylococcus aureus [9], 0.002 µg; in the data set filed under Mus musculus, “Non-toxic”; in [6], more than 67 µg/mL. For the same molecule, the MIC in the data set on Escherichia coli [4] is more than 64 µg/mL; in the data set with Staphylococcus aureus [10], 1 µg/mL (≈ 2.35 µM); with Streptococcus pneumoniae [12], 4 µg/mL (≈ 9.4 µM); with Staphylococcus aureus [13], 1 µg/mL (≈ 2.35 µM); in the data set with Enterococcus faecalis, 2 µg/mL (≈ 4.7 µM); against Staphylococcus aureus [5], 1 µg/mL (≈ 2.35 µM). In addition, the MIC with Staphylococcus aureus [16] was 0.5 µg/mL (≈ 1.18 µM); in the data set on Staphylococcus aureus [17] it was 0.5 µg/mL (≈ 1.18 µM); with Candida albicans, more than 64 µg/mL; against Escherichia coli [7] it was 2 µg/mL (≈ 4.7 µM); against Enterococcus faecium, less than 0.06 µg/mL; in the data set with Staphylococcus aureus [19] it was 8 µg/mL. The IC50 in the data set on Streptococcus pneumoniae [11] was 2.7 µg/mL (≈ 6.35 µM); in [14], 16.2 µM; with HeLa it was more than 100 µg/mL; with Staphylococcus aureus [18], 0.19 µg/mL (≈ 0.447 µM); in data set [20] it was 9.17 µM; in data set [21] it was 4.58 µM. Moreover, the IC50 in data set [22] is 0.113 µM. Further, in data set [15], the result was inactive.

Turning to `C[C@@H]1[C@H](O)[C@@H](C)/C=C/C=C/C=C/C=C/C=C/C=C/C=C/[C@H](O[C@@H]2O[C@H](C)[C@@H](O)[C@H](N)[C@@H]2O)C[C@@H]2O[C@](O)(C[C@@H](O)C[C@@H](O)[C@H](O)CC[C@@H](O)C[C@@H](O)CC(=O)O[C@H]1C)C[C@H](O)[C@H]2C(=O)O` [AMPHOTERICIN B], the Activity in data set [6] was determined as 2 µg/mL.

Turning to `CC12C[C@@]34C=CC(=O)[C@@](C)(CCC(=O)Nc5c(O)ccc(C(=O)O)c5O)C3[C@H](CC1C4)O2` (stereo partly specified) [PLATENSIMYCIN], the MIC was more than 64 µg/mL with Escherichia coli [4]; 0.5 µg/mL (≈ 1.13 µM) in the data set on Staphylococcus aureus [10]; 1 µg/mL (≈ 2.27 µM) in the data set on Streptococcus pneumoniae [12]; 0.5 µg/mL (≈ 1.13 µM) against Staphylococcus aureus [13]; 1 µg/mL (≈ 2.27 µM) against Enterococcus faecalis; 1 µg/mL (≈ 2.27 µM) with Staphylococcus aureus [5]. Moreover, the MIC with Staphylococcus aureus [16] is 0.5 µg/mL (≈ 1.13 µM); against Staphylococcus aureus [17], 0.5 µg/mL (≈ 1.13 µM); in the data set on Candida albicans, more than 64 µg/mL; against Escherichia coli [7] it was 16 µg/mL (≈ 36.2 µM); in the data set with Enterococcus faecium, 0.1 µg/mL (≈ 0.227 µM); in the data set on Staphylococcus aureus [19], 2 µg/mL. Besides, the Activity in the data set on Staphylococcus aureus [9] is 0.004 µg; in [6] it was more than 67 µg/mL. Further, the IC50 in the data set on Streptococcus pneumoniae [11] was 0.8 µg/mL (≈ 1.81 µM); in data set [24], 0.29 µM; in [14], 67 µM; in the data set with HeLa it was more than 1000 µg/mL; with Staphylococcus aureus [18], 0.1 µg/mL (≈ 0.227 µM); in [3], 247 µM. Also, the outcome (in the data set on Staphylococcus aureus [23]; in data set [15]; with Staphylococcus aureus [25]; with Staphylococcus aureus [26]; in the data set with Staphylococcus aureus [27]) was inactive.

As a reminder, the inhibition is the share of the control response that was lost under treatment. As a reminder, the IC50 is the concentration that inhibits the measured activity by half. By MIC is commonly meant the least concentration at which growth counts as inhibited.
